Measured values from PMC6792352, “Limited Chemical Structural Diversity Found to Modulate Thyroid Hormone Receptor in the Tox21 Chemical Library” (Environmental Health Perspectives, 2019).
Where a name gives a salt, the structure may show the parent alone.

Experiment: in vitro
Details: rat, gh3-tre-luc cells, AC50 (uM) modified / 1000

Point of comparison: `CNC(=O)c1cc(Oc2ccc(NC(=O)Nc3ccc(Cl)c(C(F)(F)F)c3)cc2)ccn1` [Sorafenib tosylate], CC50 at 24 h 9.89 µM. Against it:
- CC(=O)OCC(=O)[C@@]1(O)CC[C@H]2[C@@H]3CCC4=CC(=O)C=C[C@]4(C)[C@@]3(F)[C@@H](O)C[C@@]21C [Isoflupredone acetate] — higher, > 20 µM
- COc1ccc([N+](=O)[O-])cc1N [2-Methoxy-5-nitroaniline] — higher, > 90 µM
- CCCCC(C)(O)C/C=C/[C@H]1[C@H](O)CC(=O)[C@@H]1CCCCCCC(=O)OC (mixture of isomers) [Misoprostol] — higher, > 50 µM
- Cc1cc(=O)c2c(O)c3c(O)cc(=O)c4c3c3c(cc(O)c1c23)C(C)(C)C=4O [Geliomycin] — 11-fold lower, 0.889 µM
- C=CC(=O)OCCOCCOCC [2-(2-Ethoxyethoxy)ethyl prop-2-enoate] — higher, > 90 µM
- Cc1cc(C(C)(C)c2ccc(O)c(C)c2)ccc1O [3,3'-Dimethylbisphenol A] — higher, > 90 µM
- CO[C@H]1C[C@H](O[C@H]2[C@H](C)[C@@H](O[C@@H]3O[C@H](C)C[C@H](N(C)C)[C@H]3OC(C)=O)[C@@H](C)C[C@@]3(CO3)C(=O)[C@H](C)[C@@H](OC(C)=O)[C@@H](C)[C@@H](C)OC(=O)[C@@H]2C)O[C@@H](C)[C@@H]1OC(C)=O [Troleandomycin] — higher, > 20 µM
- Cc1ccc(C)c(S(=O)(=O)O)c1 [2,5-Dimethylbenzenesulfonic acid] — higher, > 80 µM
- N[C@@H](Cc1cc(I)c(Oc2cc(I)c(O)c(I)c2)c(I)c1)C(=O)O [Levothyroxine] — higher, > 60 µM
- O=C(OCc1ccccc1)c1ccccc1O [Benzyl salicylate] — higher, > 90 µM
- CC(C)NC(=O)N1CC(=O)N(c2cc(Cl)cc(Cl)c2)C1=O [Iprodione] — higher, > 90 µM
- c1ccc2c(c1)oc1ccccc12 [Dibenzofuran] — higher, > 90 µM
- Cc1c[nH]c(=S)[nH]c1=O [5-Methyl-2-thiouracil] — higher, > 90 µM
- C[Si]1(C)O[Si](C)(C)O[Si](C)(C)O1 [Hexamethylcyclotrisiloxane] — higher, > 90 µM
- CC1(C)S[C@@H]2[C@H](N3C(=O)[C@@H](c4ccccc4)NC3(C)C)C(=O)N2[C@H]1C(=O)O [Hetacillin potassium] — higher, > 50 µM
- C=C1c2cccc(O)c2C(O)=C2C(=O)[C@]3(O)C(O)=C(C(N)=O)C(=O)[C@@H](N(C)C)[C@@H]3[C@@H](O)[C@H]12 [Methacycline hydrochloride] — higher, > 20 µM
- O=C(NOCC1CC1)c1ccc(F)c(F)c1Nc1ccc(I)cc1Cl [C.I. 1040] — 2.1-fold higher, 21.1 µM
- O=C(O)[C@H]1/C(=C/CO)O[C@@H]2CC(=O)N21 [Clavulanate lithium] — higher, > 50 µM
- CCc1cnc(C2=NC(C)(C(C)C)C(=O)N2)c(C(=O)O)c1 (stereo not shown) [Imazethapyr] — higher, > 90 µM
- CC(C)[C@@H](C)/C=C/[C@@H](C)[C@H]1CC[C@H]2/C(=C/C=C3\C[C@@H](O)CC[C@@H]3C)CCC[C@]12C [Dihydrotachysterol] — higher, > 50 µM
- Nc1ccc(C(=O)OCCCOC(=O)c2ccc(N)cc2)cc1 [Propane-1,3-diyl bis(4-aminobenzoate)] — higher, > 90 µM
- CCC(C)=NO [2-Butanone oxime] — higher, > 90 µM
- OC1OC[C@@H](O)[C@H](O)[C@H]1O (stereo partly drawn) [D-Xylose] — higher, > 90 µM
- Cc1cc(Cl)ccc1OC(C)C(=O)O (stereo not shown) [Mecoprop] — higher, > 90 µM
- COc1ccc([C@]2(C#N)CC[C@@H](C(=O)O)CC2)cc1OC1CCCC1 [Cilomilast] — higher, > 50 µM
- O=[N+]([O-])C(CO)(CO)CO [2-(Hydroxymethyl)-2-nitro-1,3-propanediol] — higher, > 90 µM
- CN1Cc2c(N)cccc2C(c2ccccc2)C1 (stereo not shown) [Nomifensine] — 3.9-fold higher, 38.8 µM
- CC1=C(O)C(=O)OC1C (stereo not shown) [4,5-Dimethyl-3-hydroxy-2,5-dihydrofuran-2-one] — higher, > 90 µM
- Cc1ccc(Cl)cc1Cl [2,4-Dichlorotoluene] — higher, > 90 µM
- C=CS(=O)(=O)O [Sodium ethenesulfonate] — higher, > 50 µM
- NCCCCCCN [1,6-Hexanediamine] — higher, > 90 µM
- C(COCC1CO1)OCC1CO1 (stereo not shown) [Ethylene glycol diglycidyl ether] — higher, > 90 µM
- C[C@@H](O)[C@@H]1NC(=O)[C@H](CCCCN)NC(=O)[C@@H](Cc2c[nH]c3ccccc23)NC(=O)[C@H](Cc2ccccc2)NC(=O)[C@@H](NC(=O)[C@H](N)Cc2ccccc2)CSSC[C@@H](C(=O)N[C@H](CO)[C@@H](C)O)NC1=O [Octreotide] — higher, > 50 µM
- CC[N+]1(C)CCCC1 [1-Ethyl-1-methylpyrrolidinium hexafluorophosphate] — higher, > 90 µM
- CCCCC(CC)COC(=O)c1ccc(C(=O)OCC(CC)CCCC)cc1 (stereo not shown) [Bis(2-ethylhexyl) terephthalate] — higher, > 90 µM
- CC(C)[C@@H](N)C(=O)O [D-Valine] — higher, > 50 µM
- NC(=O)C(c1ccccc1)(c1ccccc1)[C@@H]1CCN(CCc2ccc3c(c2)CCO3)C1 [Darifenacin hydrobromide] — within 1.5-fold, 14.7 µM
- Cc1ccn2nc(S(=O)(=O)Nc3c(F)cccc3F)nc2n1 [Flumetsulam] — higher, > 90 µM
- c1ccc(Oc2ccccc2)cc1 [Diphenyl oxide] — higher, > 90 µM
- CCC(C)(C)C(=O)OC1=C(c2ccc(Cl)cc2Cl)C(=O)OC12CCCCC2 [Spirodiclofen] — higher, > 90 µM
- Cc1cccc[n+]1[O-] [2-Methylpyridine 1-oxide] — higher, > 90 µM
- OCc1c2ccccc2cc2ccccc12 [9-Anthracenemethanol] — higher, > 90 µM
- CO[Si](CCCNCCC[Si](OC)(OC)OC)(OC)OC [3-(Trimethoxysilyl)-N-[3-(trimethoxysilyl)propyl]propan-1-amine] — higher, > 90 µM
- CCOC(=O)c1ccc(O)cc1 [Ethylparaben] — higher, > 90 µM
- CC(C)Nc1cccnc1N1CCN(C(=O)c2cc3cc(NS(C)(=O)=O)ccc3[nH]2)CC1 [Delavirdine] — higher, > 50 µM
- NCCOCCOCCN [2,2'-[Ethane-1,2-diylbis(oxy)]diethanamine] — higher, > 90 µM
- Cc1ccc(=O)n(-c2ccccc2)c1 [Pirfenidone] — higher, > 50 µM
- CCNc1nc(NC(C)C)nc(OC)n1 [Atraton] — higher, > 90 µM
- c1ccc(OCC2CO2)cc1 (stereo not shown) [Phenyl glycidyl ether] — higher, > 90 µM
- O=C(O)CC(C(=O)O)C(CC(=O)O)C(=O)O (stereo not shown) [1,2,3,4-Butanetetracarboxylic acid] — higher, > 90 µM
- CCOC(=O)Cn1cccc1-c1nc(-c2ccc(OC)cc2)c(-c2ccc(OC)cc2)s1 [Pamicogrel] — higher, > 50 µM
- O=C(O)c1ccc(NC2OC[C@@H](O)[C@H](O)[C@H]2O)cc1 (stereo partly shown) [Benaxibine] — higher, > 50 µM
- CC1=C(C(=O)OCCN(Cc2ccccc2)c2ccccc2)C(c2cccc([N+](=O)[O-])c2)C(P2(=O)OCC(C)(C)CO2)=C(C)N1 (stereo not shown) [Efonidipine] — 2.4-fold higher, 23.8 µM
- CCOC(=O)[C@H](CCc1ccccc1)N[C@@H](C)C(=O)N1C(=O)N(C)C[C@H]1C(=O)O [Imidapril hydrochloride] — higher, > 50 µM
- CCCCC1CCCCC(=O)O1 (stereo not shown) [epsilon-Decalactone] — higher, > 90 µM
- CCC(=O)OCC(=O)[C@@]1(OC(=O)CC)[C@@H](C)C[C@H]2[C@@H]3CCC4=CC(=O)C=C[C@]4(C)[C@@]3(F)[C@@H](O)C[C@@]21C [Betamethasone dipropionate] — higher, > 50 µM
- C=CC(C)(O)CC/C=C(\C)CCC=C(C)C (stereo not shown) [Nerolidol] — higher, > 90 µM
- CC1CC(=O)NN=C1c1ccc(NCC(C)(C)NCC(O)COc2cc(Cl)ccc2C#N)cc1 (stereo not shown) [Oberadilol] — higher, > 50 µM
- CCOC(=O)OC1=C(c2cc(C)ccc2C)C(=O)N[C@]12CC[C@@H](OC)CC2 [Spirotetramat] — higher, > 90 µM
- CC(C)=CCCC(C)CCO (stereo not shown) [Citronellol] — higher, > 100 µM
- CO[C@@]12[C@H](COC(N)=O)C3=C(C(=O)C(C)=C(N)C3=O)N1C[C@@H]1N[C@@H]12 [Mitomycin C] — 3.9-fold lower, 2.52 µM

Same assay, conditions: rat, gh3-tre-luc cells, AC50 (uM) modified / 1000, Tox21_110001=Tox21_111100; viability, 1 nM T3 present, 24 h

With `Oc1cc(Cl)c(Cl)cc1Cl` [2,4,5-Trichlorophenol] the CC50 at 24 h was > 50 µM.

Same assay, conditions: rat, gh3-tre-luc cells, AC50 (uM) modified / 1000, Tox21_110001=Tox21_111857; viability, 1 nM T3 present, 24 h

In the case of `C[C@]12CC[C@H]3[C@@H](CCC4=C(Cl)C(=O)CC[C@@]43C)[C@@H]1CC[C@@H]2O` [Clostebol], the CC50 at 24 h is reported as > 50 µM.

Same assay, conditions: rat, gh3-tre-luc cells, AC50 (uM) modified / 1000, Tox21_110001=Tox21_112207; viability, 1 nM T3 present, 24 h

In the case of `C[C@]12CC[C@@H]3c4ccc(OC(=O)N(CCCl)CCCl)cc4CC[C@H]3[C@@H]1CC[C@@H]2O` [Estramustine], the CC50 at 24 h is reported as > 50 µM.

Same assay, conditions: rat, gh3-tre-luc cells, AC50 (uM) modified / 1000, Tox21_110001=Tox21_113045; viability, 1 nM T3 present, 24 h

In the case of `CNC(C)Cc1ccccc1OC` (stereo not shown) [Methoxyphenamine], the CC50 at 24 h is reported as > 50 µM.

Same assay, conditions: rat, gh3-tre-luc cells, AC50 (uM) modified / 1000, Tox21_110001=Tox21_200362; viability, 1 nM T3 present, 24 h

With `CC(Cl)CCl` (stereo not shown) [1,2-Dichloropropane] the CC50 at 24 h was > 90 µM.

Same assay, conditions: rat, gh3-tre-luc cells, AC50 (uM) modified / 1000, Tox21_110001=Tox21_201109; viability, 1 nM T3 present, 24 h

For `ClCC(Cl)(Cl)Cl` [1,1,1,2-Tetrachloroethane], the CC50 at 24 h was > 100 µM.

Same assay, conditions: rat, gh3-tre-luc cells, AC50 (uM) modified / 1000, Tox21_110001=Tox21_201112; viability, 1 nM T3 present, 24 h

For `CC(Cl)(Cl)C(=O)O` [Dalapon-sodium], the CC50 at 24 h was > 90 µM.

Same assay, conditions: rat, gh3-tre-luc cells, AC50 (uM) modified / 1000, Tox21_110001=Tox21_201545; viability, 1 nM T3 present, 24 h

With `Oc1cc(Cl)c(Cl)cc1Cl` [2,4,5-Trichlorophenol] the CC50 at 24 h was > 90 µM.

Same assay, conditions: rat, gh3-tre-luc cells, AC50 (uM) modified / 1000, Tox21_110001=Tox21_202045; viability, 1 nM T3 present, 24 h

With `c1ccc2c(c1)Oc1ccccc1O2` [Dibenzo-p-dioxin] the CC50 at 24 h was > 90 µM.

Same assay, conditions: rat, gh3-tre-luc cells, AC50 (uM) modified / 1000, Tox21_110001=Tox21_300810; viability, 1 nM T3 present, 24 h

In the case of `CCOC(=O)Cc1ccccc1` [Ethyl phenylacetate], the CC50 at 24 h is reported as > 90 µM.

Same assay, conditions: rat, gh3-tre-luc cells, AC50 (uM) modified / 1000, Tox21_110001=Tox21_303313; viability, 1 nM T3 present, 24 h

In the case of `CCCCC(CC)COP(=O)(Oc1ccccc1)Oc1ccccc1` (stereo not shown) [2-Ethylhexyl diphenyl phosphate], the CC50 at 24 h is reported as > 90 µM.
